{"source": "patent US11993578B2", "about": "“Pyrazole-3-carboxylic acid amide derivative and pest control agent” (KUMIAI CHEMICAL INDUSTRY CO., LTD., priority 2017, dated 2024)", "data": [{"system": "Aphis gossypii", "assay": "Aphis gossypii killing test (Test Example 3)", "type": "in vivo", "conditions": "72 h, 500 ppm active ingredient, cucumber nursery plant with nymphs dipped, after 3 days, 25° C., read-out: percentage of dead insects", "method": "[formula] The water-dispersible powder prepared in accordance with Formulation example 2 was diluted in water so that the concentration of the active ingredient was 500 ppm. A nursery plant of cucumber preliminarily inoculated with nymphs of Aphis gossypii was dipped in this liquid agent, and air-dried. The nursery plant of cucumber after the treatment was placed in a thermostatic chamber at 25° C., and the number of live insects was counted after 3 days, and the percentage of dead insects was determined by the calculation formula of numerical formula 1. The test was conducted singly.", "units": {"pest or weed control at 500 ppm": "%"}, "values": [{"smiles": "NC(=O)c1nn(-c2cccnc2)cc1O", "note": "[Compound A-0001, 4-hydroxy-1-(pyridine-3-yl)-1H-pyrazole-3-carboxamide]", "pest or weed control at 500 ppm": "≥ 50"}, {"smiles": "CC(C)(C)CCOc1cn(-c2cccnc2)nc1C(N)=O", "note": "[Compound A-0017, 4-(3,3-dimethylbutoxy)-1-(pyridine-3-yl)-1H-pyrazole-3-carboxamide]", "pest or weed control at 500 ppm": "≥ 50"}, {"smiles": "NC(=O)c1nn(-c2cccnc2)cc1OCC(F)(F)C(F)(F)F", "note": "[Compound A-0044, 4-(2,2,3,3,3-pentafluoropropoxy)-1-(pyridine-3-yl)-1H-pyrazole-3-carboxamide]", "pest or weed control at 500 ppm": "≥ 50"}, {"smiles": "NC(=O)c1nn(-c2cccnc2)cc1OC(F)(F)C(F)OC(F)(F)F", "note": "(centres unmarked) [Compound A-0071, 1-(pyridine-3-yl)-4-[1,1,2-trifluoro-2-(trifluoromethoxy)ethoxy]-1H-pyrazole-3-carboxamide]", "pest or weed control at 500 ppm": "≥ 50"}, {"smiles": "NC(=O)c1nn(-c2cccnc2)cc1OCc1ccccc1", "note": "[Compound A-0240, 4-benzyloxy-1-(pyridine-3-yl)-1H-pyrazole-3-carboxamide]", "pest or weed control at 500 ppm": "≥ 50"}, {"smiles": "CC(C)C(=O)NC(=O)c1nn(-c2cccnc2)cc1OC(F)(F)C(F)OC(F)(F)F", "note": "(centres unmarked) [Compound A-2403, N-isobutyryl-1-(pyridine-3-yl)-4-[1,1,2-trifluoro-2-(trifluoromethoxy)ethoxy]-1H-pyrazole-3-carboxamide]", "pest or weed control at 500 ppm": "≥ 50"}, {"smiles": "NC(=S)c1nn(-c2cccnc2)cc1OC(F)(F)C(F)OC(F)(F)F", "note": "(centres unmarked) [Compound A-5436, 1-(pyridine-3-yl)-4-[1,1,2-trifluoro-2-(trifluoromethoxy)ethoxy]-1H-pyrazole-3-carbothioamide]", "pest or weed control at 500 ppm": "≥ 50"}, {"smiles": "NC(=O)c1nn(-c2ccc[n+]([O-])c2)cc1OC(F)(F)C(F)OC(F)(F)F", "note": "(centres unmarked) [Compound A-5510, 3-(3-carbamoyl-4-[1,1,2-trifluoro-2-(trifluoromethoxy)ethoxy]-1H-pyrazole-1-yl)pyridine-1-oxide]", "pest or weed control at 500 ppm": "≥ 50"}]}]}
